In brackets after ≈: the same amount, converted by molar mass. Read-outs that look alike come from different tables or passages of the source.
Assays:
B. subtilis 168 = test: Determination of minimum inhibitory concentration (MIC); type: cell-based, Bacillus subtilis; settings: read-out: MIC B. subtilis
Method in brief: (§1)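 Two-fold serial agar dilution on L agar and also on Mueller Hinton agar (pH 7.3); 10 µl of stationary-phase culture diluted in 0.85% NaCl to 10^6 cells/ml spotted per plate. MIC taken as lowest concentration inhibiting growth.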

[1] = tested on: E. coli K-12 strains (ponB, mreB alleles); test: MICs of mecillinam and A22 for E. coli K-12 strains; type: cell-based; settings: for MIC: Escherichia coli
Description: Determination of MIC Minimal inhibitory concentrations (MICs) were determined using a standard 2-fold serial dilution format on L agar plates. Ten microliters of stationary culture diluted in 0.85% NaCl to 10^6 cells/ml were spotted on per plate. […] MICs were also determined on Mueller Hinton agar plates (0.2% beef extract, 1.75% acid digest of casein, 0.15% soluble starch, 1.5% agar, pH 7.3).

S. typhimurium NBRC13245 = test: Determination of minimum inhibitory concentration (MIC); type: cell-based, Salmonella typhimurium; settings: Salmonella enterica, read-out: MIC S. typhimurium
Method in brief: as §1

[2] = tested on: S. aureus subsp. aureus NBRC15035; test: as above; type: cell-based, Staphylococcus aureus; settings: Staphylococcus aureus, read-out: MIC S. aureus
Method in brief: as §1

[3] = tested on: Caulobacter DNA replication; test: Analysis of DNA replication (32P-labeled dGTP incorporation, DNA-content FACS); type: cell-based, Caulobacter crescentus
From the text: We first examined the incorporation of radiolabeled dGTP into DNA, which linearly correlates with the rate of DNA replication. […] To assess the effect of A22 on DNA replication during the cell cycle, the radiolabeled nucleotide incorporation assay was repeated using synchronized cultures at different points in the cell cycle. Untreated cells display a dramatic rise in radioactivity levels characteristic of DNA replication initiation at the swarmer-to-stalked cell transition. This rise in radioactivity levels was also observed in A22-treated cells (FIG. 6A).
Finally, we examined the DNA content of A22-treated cells by FACS.
Analysis of DNA Replication. DNA replication was assessed by incorporation of 32P-labeled dGTP) or chromomycin-stained DNA-content FACS analysis as described previously.

GFP-MreB [4] = target: T1, GFP-MreB (Caulobacter vibrioides, UniProt A0A0H3C7V4); test: GFP-MreB localization; type: cell-based, Caulobacter crescentus
T1 construct: expressed in transfected cells; host or cells: Caulobacter crescentus CB15N derivative, xylose-inducible Pxyl:gfp-mreB
T1 sequence (A0A0H3C7V4 whole entry): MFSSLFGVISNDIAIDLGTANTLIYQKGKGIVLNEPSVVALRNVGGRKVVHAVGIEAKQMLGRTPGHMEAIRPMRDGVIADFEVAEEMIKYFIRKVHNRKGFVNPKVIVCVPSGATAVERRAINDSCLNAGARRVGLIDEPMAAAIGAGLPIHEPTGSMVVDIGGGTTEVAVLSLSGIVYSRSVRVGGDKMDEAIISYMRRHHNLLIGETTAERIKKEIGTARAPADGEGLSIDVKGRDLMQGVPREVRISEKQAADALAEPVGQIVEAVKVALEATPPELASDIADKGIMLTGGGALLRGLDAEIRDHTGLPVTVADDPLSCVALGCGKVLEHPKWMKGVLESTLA
Description: (§2) A22 Rapidly and Reversibly Delocalizes GFP-MreB. During the Caulobacter cell cycle, MreB forms a lengthwise spiral in swarmer cells and stalked cells. It then appears to condense into an increasingly tight ring positioned at the future site of cell division. When cytokinesis initiates, this ring is replaced by a lengthwise spiral, such that upon cell division each daughter cell inherits a fully expanded spiral. […] Since 10 μg/ml of A22 strongly delocalizes GFP-MreB and blocks cell division without completely inhibiting cell growth, we have chosen to focus most of our subsequent A22 studies on this concentration.
(§3) The onset of A22's effect on GFP-MreB is very rapid: within 1 min the GFP-MreB already delocalized (FIG. 4B). A22's effect on GFP-MreB is also rapidly reversible. Diluting the A22 concentration of cells treated with A22 for 1 hr by mounting them on pads lacking A22 leads to a full recovery of MreB localization within 1 min (FIG. 4C). GFP-MreB was monitored in the same cells before, during, and after A22 treatment by timelapse imaging cells in a flow chamber that allows A22 to be washed in and out (FIGS. 4D-4F). […] Cells generally retained a memory of the MreB structure present before A22 treatment (FIGS. […]). Cells with rings recovered rings, cells with spirals recovered spirals, and cells with partially compacted rings recovered partially compacted rings. These findings are consistent with MreB's localization being determined by extrinsic factors regulated by the cell cycle state, rather than an intrinsic MreB localization cycle.
(§4) We constructed a fusion of the most common A22-resistant mreB missense mutation (T158A) to GFP and asked if the cellular organization of this MreB mutant is maintained in 10 μg/ml of A22. This fusion was expressed in the corresponding A22-resistant strain, producing merodiploid cells containing both GFP-tagged and -untagged mutated mreB, but no wild-type mreB. […] Since this mutation in the MreB ATP binding pocket perturbs MreB dynamic localization, nucleotide hydrolysis may play a role in regulating MreB dynamics.
(§5) Microscopy and Timelapse Imaging. All experiments other than the A22 flow-cell analysis were performed by mounting the samples on 1% agarose pads as described, with the appropriate concentration of A22 added to the agarose. The rates of origin-distal locus segregation were determined by inducing PxyI:lacI:cfp expression with 0.03% xylose for 75 min, isolating swarmer cells, and growing the swarmer cells in M2G liquid medium for 50 min. After 50 min, 10 μg/ml of A22 was added to these liquid cultures, they were mounted onto 1% M2G agarose pads containing 10 μg/ml A22, and a phase and CFP fluorescence image was captured every 2 min for 60 min. The images were analyzed by previously described software to determine the average position and rate of movement of the observed foci.
(§6) The A22 flow-cell treatment timelapse images were performed on PxyI:gfp-mreB cells induced for 2 hr with 0.03% xylose. These cells were adhered to polylysine-coated cover slips. The cover slips were then adhered to microscope slides with two parallel strips of double-sided tape (3M), leaving a central channel. An excess of medium containing 0 or 10 μg/ml A22 was pipetted onto one opening of this channel and wicked through by placing a tissue (VWR) on the other end. Images were collected every 30 s.

GFP-MreB [5] = target: T2, GFP-MreB (Caulobacter vibrioides, UniProt A0A0H3C7V4, T167A); test: GFP-MreB localization; type: cell-based, Caulobacter crescentus; settings: 10 μg/ml; A22-resistant strain
T2 construct: expressed in transfected cells; host or cells: Caulobacter crescentus CB15N derivative, xylose-inducible Pxyl:gfp-mreB
T2 sequence (A0A0H3C7V4 whole entry T167A): as the sequence (A0A0H3C7V4 whole entry) above, with T167A counted along it
Description: as §2, §3, §4, §5, §6

N=C(N)SCc1ccc(Cl)c(Cl)c1 [Compound 1, S-(3,4-dichlorobenzyl)isothiourea]
MIC (B. subtilis 168; Bacillus subtilis, 168, Example 2, methods as in Example 1): 100 mg/L (≈ 425 µM)
MIC (B. subtilis 168; Bacillus subtilis, 168, Table 1, B. subtilis 168): 100 mg/L (≈ 425 µM)
MIC ([1]; read-out: MICs, strain JA221 (ponB −, mreB221)): 100 mg/L (≈ 425 µM)
MIC ([1]; read-out: MICs, strain JE1011 (ponB +, mreB +)): 6.25 mg/L (≈ 26.6 µM)
MIC ([1]; read-out: MICs, strain JM109/pMW218 (ponB +, mreB +/−)): 6.25 mg/L (≈ 26.6 µM)
MIC ([1]; read-out: MICs, strain JM109/pMreB1 (ponB +, mreB +/+)): 25 mg/L (≈ 106 µM)
MIC ([1]; read-out: MICs, strain JM109/pMreB221 (ponB +, mreB +/mreB221)): 100 mg/L (≈ 425 µM)
MIC ([1]; read-out: MICs, strain JST975 (ponB −, mreB +)): 1.6 mg/L (≈ 6.8 µM)
MIC ([1]; read-out: MICs, strain JSTA220 (ponB −, mreB +)): 3.12 mg/L (≈ 13.3 µM)
MIC ([1]; read-out: MICs, strain JSTA221 (ponB −, mreB221)): 100 mg/L (≈ 425 µM)
MIC ([1]; read-out: MICs, strain WA220 (ponB +, mreB +)): 6.25 mg/L (≈ 26.6 µM)
MIC ([1]; read-out: MICs, strain WA221 (ponB +, mreB221)): > 100 mg/L
MICs ([1]; strain JST975 (ponB −, mreB +), listed as A22): 3.125 µg/mL
MIC (S. typhimurium NBRC13245; Example 2, methods as in Example 1): 3.13 mg/L (≈ 13.3 µM)
MIC (S. typhimurium NBRC13245; Table 1, NBRC13245): 3.13 mg/L (≈ 13.3 µM)
MIC ([2]; NBRC15035, Example 2, methods as in Example 1): > 100 mg/L
MIC ([2]; NBRC15035, Table 1, NBRC15035): > 100 mg/L
Incorporation of radiolabeled dGTP, asynchronous cultures [3]: does not interfere with bulk DNA synthesis
Incorporation of radiolabeled dGTP, synchronized cultures (replication initiation) ([3]; 10 μg/ml A22 or 5 mg/ml HU): slightly delayed replication initiation
DNA content by FACS ([3]; 10 μg/ml, 8 hr): predominantly contained cells with two chromosomes
GFP-MreB localization (puncta and bands) (GFP-MreB [4]; 1 μg/ml or less): largely maintained
Onset of GFP-MreB delocalization (GFP-MreB [4]; 10 μg/ml): ≤ 1 min
GFP-MreB localization (GFP-MreB [4]; 10 or 100 μg/ml): completely disrupted this GFP-MreB localization
Full recovery of MreB localization after diluting A22 (GFP-MreB [4]; cells treated 1 hr, mounted on pads lacking A22): ≤ 1 min
Localization of mutated (T158A) GFP-MreB (GFP-MreB [5]): completely unaffected
